Entries after “also recorded” stand apart in the source; their conditions may differ.
Assays:
[1] = target: T1, SLC7A10+SLC3A2 (asc-1/4f2) (Homo sapiens, UniProt Q9NS82); test: [3H]D-serine uptake in oocytes; assay type: cell-based; conditions: 10 µM BPOHP
T1 construct: expressed in transfected cells; host or cells: Xenopus laevis oocytes (cRNA co-injection)
T1 sequence (Q9NS82 1-523): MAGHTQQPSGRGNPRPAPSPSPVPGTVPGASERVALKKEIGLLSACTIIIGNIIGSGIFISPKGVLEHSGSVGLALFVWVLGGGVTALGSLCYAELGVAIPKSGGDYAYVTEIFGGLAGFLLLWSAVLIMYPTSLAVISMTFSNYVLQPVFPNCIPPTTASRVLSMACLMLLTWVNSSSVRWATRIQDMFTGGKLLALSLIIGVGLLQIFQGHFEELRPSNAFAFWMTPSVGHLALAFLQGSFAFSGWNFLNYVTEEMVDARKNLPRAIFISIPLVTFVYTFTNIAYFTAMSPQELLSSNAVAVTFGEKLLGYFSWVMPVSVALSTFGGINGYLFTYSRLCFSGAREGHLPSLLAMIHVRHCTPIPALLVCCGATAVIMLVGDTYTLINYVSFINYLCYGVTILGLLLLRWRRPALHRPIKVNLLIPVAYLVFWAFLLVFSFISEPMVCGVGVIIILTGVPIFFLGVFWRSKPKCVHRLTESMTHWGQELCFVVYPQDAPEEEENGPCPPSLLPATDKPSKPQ
T1 sequence (P08195 1-529 partner): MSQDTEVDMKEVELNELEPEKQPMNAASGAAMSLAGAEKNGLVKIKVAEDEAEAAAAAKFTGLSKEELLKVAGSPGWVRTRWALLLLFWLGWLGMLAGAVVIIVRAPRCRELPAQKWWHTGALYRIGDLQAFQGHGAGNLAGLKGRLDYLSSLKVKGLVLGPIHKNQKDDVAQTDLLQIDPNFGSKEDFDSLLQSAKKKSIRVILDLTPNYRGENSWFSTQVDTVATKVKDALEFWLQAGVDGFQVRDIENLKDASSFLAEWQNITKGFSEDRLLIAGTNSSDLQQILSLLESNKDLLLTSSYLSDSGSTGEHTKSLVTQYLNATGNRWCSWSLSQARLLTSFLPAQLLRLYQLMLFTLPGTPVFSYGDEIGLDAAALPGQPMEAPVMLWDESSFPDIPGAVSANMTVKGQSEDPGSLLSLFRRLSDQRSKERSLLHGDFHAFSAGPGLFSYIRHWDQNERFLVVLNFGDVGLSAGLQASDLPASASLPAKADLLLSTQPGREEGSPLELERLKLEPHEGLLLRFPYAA
Description: (§1) BPOHP activity was evaluated against the glutamate transporters paralogs within the SLC1A gene family (SLC1A 1–3) as well as at neutral amino acid transporters that share common ligand substrates with the SLC1 family including SLC38A1,2, and 4 (ATA1, ATA2, ATA3) and heteromeric transporters SLC7A10+SLC3A2 (asc-1/4f2). […] Finally, radiolabeled [^3H]D-serine uptake was used to assess the electroneutral SLC7A10+SLC3A2 transporter, in which 10 µM BPOHP had no effect (Figure S3).
Uptake was halted by washing 3 times with 4 °C ND96 buffer. Oocytes were then lysed in 0.1% Triton X-100, and radioactivity was counted via liquid scintillation. Dose response curves were generated by fitting fractional inhibition (I) to the expression I = Imax × [inhibitor]/([inhibitor] + IC50).
Figure SM-3A. Representative traces showing 100µM L-Ala currents and co-application of 3µM BPOHP (black bar) with no effect on SLC38A neutral amino acid transporters SLC38A1(ATA1), SLC38A2 (ATA2), and SLC38A4 (ATA3). SM-3B. [3H]D-serine uptake (100nM) in SLC1A4 is blocked by BPOHP (10µM), however, [ 3H]D-serine uptake by co -expressed SLC7A10+SLC3A2 (asc1+4F2) nor SLC3A2 (4f2) expressed (injected) alone was blocked by application of 10µM BPOHP.
Figure SM-4. Tosic acid approach to compound 12c. (i) Tosylic acid 0.1M in THF 60◦C. (ii) Phenol and NaH in DCM, 40◦C under argon balloon (iii) 10% Pd/C (10% w/eq.), H2, MeOH, H2O, […]

[2] = tested on: glutamate transporters (SLC1A 1–3); test: Inhibition of the glutamate transporters, general statement; assay type: cell-based, human
Description: as §1
High resolution structural models for SLC1A4 and SLC1A5 have been developed. These models reinforce our SLC1A5 homology model derived from the archaeal glutamate transporter. […] While preparing this manuscript, inhibitors of SLC1A5 of a similar design to our alkoxy-hydroxyprolines were reported with ligand-bound high-resolution EM models. These reported EM models help validate our docking solutions with respect to mode of binding within our homology model. We emphasize that our discoveries and modeling of these hydroxyproline/AHPC inhibitors targeting SLC1A4 and SLC1A5, as documented in the public domain [66, 67], predates these reports and is yet to be properly referenced/cited. […] This nonselective SLC1 inhibition, observed with BPOHP, may be attributed to entropic contributions resulting from the biphenyl moiety occupying an adjacent hydrophobic pocket.

O=C(O)[C@H]1NC[C@@H](OCc2ccc(-c3ccccc3)cc2)[C@@H]1O [14e]
effect on [3H]D-serine uptake [1]: no effect; also recorded: no inhibition was detected | inhibition of the glutamate transporters [2]: low micromolar range
